The experiment deals with T1, GCase (Homo sapiens, UniProt P04062).
T1 construct: endogenous in cells; host or cells: HeLa cells
T1 sequence (P04062 40-536): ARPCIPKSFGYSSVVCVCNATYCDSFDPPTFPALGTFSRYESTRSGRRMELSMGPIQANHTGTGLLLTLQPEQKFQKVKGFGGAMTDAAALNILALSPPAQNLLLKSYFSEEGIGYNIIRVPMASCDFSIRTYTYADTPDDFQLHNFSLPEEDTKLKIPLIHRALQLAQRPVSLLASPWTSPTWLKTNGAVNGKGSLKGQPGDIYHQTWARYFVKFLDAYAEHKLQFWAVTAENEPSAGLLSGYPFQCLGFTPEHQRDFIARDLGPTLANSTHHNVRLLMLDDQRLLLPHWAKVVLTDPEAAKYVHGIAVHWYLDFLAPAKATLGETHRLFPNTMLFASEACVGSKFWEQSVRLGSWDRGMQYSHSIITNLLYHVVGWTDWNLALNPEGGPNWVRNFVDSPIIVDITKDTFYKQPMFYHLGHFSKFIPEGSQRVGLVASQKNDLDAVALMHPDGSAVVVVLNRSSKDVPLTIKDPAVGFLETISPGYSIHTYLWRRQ
Nature of the experiment: activation of GCase in a live cell PFB assay in HELA cells. It counts as cell-based.

Results on 26 compounds are retold here after patent publication US20240262832A1, “SMALL MOLECULE MODULATORS OF GLUCOCEREBROSIDASE ACTIVITY AND USES THEREOF” (Vanqua Bio, Inc., priority 2021, published 2024).

Where only a bound is given, the exact number is not on record here.

In turn, `FC(F)Cn1ncc2ncc(N3C[C@@H]4[C@@H](COc5ccc(C(F)(F)F)nc5)[C@@H]4C3)nc21` [Compound 63, (1R,5S,6S)-3-[1-(2,2-difluoroethyl)-1H-pyrazolo[3,4-b]pyrazin-6-yl]-6-({[6-(trifluoromethyl)pyridin-3-yl]oxy}methyl)-3-azabicyclo[3.1.0]hexane] gave a 50% effective concentration (EC50) of 10 to 50 µM.

In turn, `Cc1ccccc1OCC1CCCN(C(=O)c2c(C3CC3)n(-c3ccccc3)c3nccnc23)C1` (centres unmarked) [Compound 255, (6-cyclopropyl-5-phenyl-5H-pyrrolo[2,3-b]pyrazin-7-yl)(3-((o-tolyloxy)methyl)piperidin-1-yl)methanone] gave an EC50 of 10 to 50 µM.

In turn, `COCCn1ncc2ncc(N3C[C@@H](C)C[C@@H](COc4cccnc4C(F)(F)F)C3)nc21` [Compound 230a, 1-(2-Methoxyethyl)-6-((3S,5R)-3-methyl-5-(((2-(trifluoromethyl)pyridin-3-yl)oxy)methyl)piperidin-1-yl)-1H-pyrazolo[3,4-b]pyrazine] had a half-maximal effective concentration (EC50) of 10 to 50 µM. `O=C(c1ccc2cc[nH]c2c1)N1CC2CC2(COc2cccnc2C(F)(F)F)C1` (centres unmarked) [Compound 261, 6-[1-({[2-(Trifluoromethyl)pyridin-3-yl]oxy}methyl)-3-azabicyclo[3.1.0]hexane-3-carbonyl]-1H-indole] had an EC50 greater than 100 µM. The value for `COc1ccc(OCC2CCN(C(=O)CN3C(=O)CCC3C)CC2)cc1` (centres unmarked) [Compound 483] was 50 to 100 µM; that for `Cc1ccccc1OCC1CCCN(C(=O)c2cnn3c(-c4ccccc4)ccc(F)c23)C1` (centres unmarked) [Compound 292, (4-Fluoro-7-phenylpyrazolo[1,5-a]pyridin-3-yl)(3-((o-tolyloxy)methyl)piperidin-1-yl)methanone] was 10 to 50 µM. Take `Cn1c(-c2ccccc2)cc2ncc(N3CCCC(COc4cccnc4C(F)(F)F)C3)nc21` (centres unmarked) [Compound 33, 5-Methyl-6-phenyl-3-(3-(((2-(trifluoromethyl)pyridin-3-yl)oxy)methyl)piperidin-1-yl)-5H-pyrrolo[2,3-b]pyrazine]: the EC50 fell in the range of 10 to 50 µM. The result for `FC(F)Cn1ncc2ncc(N3CCC(COc4ncccc4C(F)(F)F)CC3)nc21` [Compound 313, 1-(2,2-Difluoroethyl)-6-(4-(((3-(trifluoromethyl)pyridin-2-yl)oxy)methyl)piperidin-1-yl)-1H-pyrazolo[3,4-b]pyrazine] reads 10 to 50 µM; that for `CC1C(COc2cccnc2C(F)(F)F)CCCN1c1cnc2cnn(CC(F)F)c2n1` (centres unmarked) [Compound 116, 1-(2,2-Difluoroethyl)-6-(2-methyl-3-(((2-(trifluoromethyl)pyridin-3-yl)oxy)methyl)piperidin-1-yl)-1H-pyrazolo[3,4-b]pyrazine], less than 10 µM; that for `COc1ccc(OCC2CCN(C(=O)Cn3cnnn3)CC2)cc1` [Compound 484], greater than 100 µM. The compound `CC1CCC(COc2cccnc2C(F)(F)F)CN1c1cncc(-c2nncs2)n1` (centres unmarked) [Compound 232, 2-[2-Methyl-5-({[2-(trifluoromethyl)pyridin-3-yl]oxy}methyl)piperidin-1-yl]-6-(1,3,4-thiadiazol-2-yl)pyrazine] registered a concentration for a half-maximal effect (EC50) of less than 10 µM. Compound `Cc1ccccc1OCC1CCCN(C(=O)c2cnn3c(-c4ccccc4)ccc(Cl)c23)C1` (centres unmarked) [Compound 25, (4-Chloro-7-phenylpyrazolo[1,5-a]pyridin-3-yl)(3-((o-tolyloxy)methyl)piperidin-1-yl)methanone] came in with an EC50 of 10 to 50 µM. The result for `O=c1[nH]c(N2CCC[C@H](COc3cccnc3C(F)(F)F)C2)cc2c1cnn2CC(F)F` [Compound 306, (S)-1-(2,2-difluoroethyl)-6-(3-(((2-(trifluoromethyl)pyridin-3-yl)oxy)methyl)piperidin-1-yl)-1,5-dihydro-4H-pyrazolo[4,3-c]pyridin-4-one] reads greater than 100 µM; that for `COc1ccc(OCC2CCN(C(=O)c3cnc(O)cn3)CC2)cc1` [Compound 452], greater than 100 µM.

With `COCC1CCC(COc2cccnc2C(F)(F)F)CN1c1cnc2cnn(CC(F)F)c2n1` (centres unmarked) [Compound 295, 1-(2,2-Difluoroethyl)-6-(2-(methoxymethyl)-5-(((2-(trifluoromethyl)pyridin-3-yl)oxy)methyl)piperidin-1-yl)-1H-pyrazolo[3,4-b]pyrazine], the concentration for a half-maximal effect (EC50) is less than 10 µM. In turn, `COc1ccc(OCC2CCN(c3nccnc3N(C)C)CC2)cc1` [Compound 441] had an EC50 greater than 100 µM. The result for `C[C@@H]1CC[C@H](COc2ncccc2C(F)(F)F)CN1c1cnc2cnn(CC(F)F)c2n1` [Compound 277, 1-(2,2-Difluoroethyl)-6-((2R,5S)-2-methyl-5-(((3-(trifluoromethyl)pyridin-2-yl)oxy)methyl)piperidin-1-yl)-1H-pyrazolo[3,4-b]pyrazine] reads 10 to 50 µM. The result for `COc1ccc(OCC2CCN(C(=O)NCCc3cn[nH]c3)CC2)cc1` [Compound 432] reads 50 to 100 µM; that for `C[C@@H](Oc1ccccc1C(F)(F)F)[C@@H]1CCCN(c2cnc3cnn(CC(F)F)c3n2)C1` [Compound 5b, 1-(2,2-difluoroethyl)-6-((R)-3-((R)-1-(2-(trifluoromethyl)phenoxy)ethyl)piperidin-1-yl)-1H-pyrazolo[3,4-b]pyrazine], 10 to 50 µM. `FC(F)Cn1ncc2cnc(N3CCCC(COc4cccnc4C(F)(F)F)C3)nc21` (centres unmarked) [Compound 119, 1-(2,2-difluoroethyl)-6-(3-(((2-(trifluoromethyl)pyridin-3-yl)oxy)methyl)piperidin-1-yl)-1H-pyrazolo[3,4-d]pyrimidine]: the EC50 fell in the range of 10 to 50 µM. The value for `Cc1cnc2c(C(=O)N3CCCC(COc4ccccc4C)C3)c(-c3ccccc3)n(C)c2n1` (centres unmarked) [Compound 257, (3,5-Dimethyl-6-phenyl-5H-pyrrolo[2,3-b]pyrazin-7-yl)(3-((o-tolyloxy)methyl)piperidin-1-yl)methanone] was 50 to 100 µM; that for `FC(F)Cn1ncc2ncc(N3CC(COc4cccnc4C(F)(F)F)CC(F)(F)C3)nc21` (centres unmarked) [Compound 21, 3-({1-[1-(2,2-difluoroethyl)-1H-pyrazolo[3,4-b]pyrazin-6-yl]-5,5-difluoropiperidin-3-yl}methoxy)-2-(trifluoromethyl)pyridine] was 10 to 50 µM; that for `CC(=O)N1CCC(c2cc3ncc(N4CCCC(COc5cccnc5C(F)(F)F)C4)nc3n2C)CC1` (centres unmarked) [Compound 73, 1-(4-(5-methyl-3-(3-(((2-(trifluoromethyl)pyridin-3-yl)oxy)methyl)piperidin-1-yl)-5H-pyrrolo[2,3-b]pyrazin-6-yl)piperidin-1-yl)ethan-1-one] was less than 10 µM.

Compound `FC(F)(F)COCCn1ncc2ncc(N3CCCC(COc4cccnc4C(F)(F)F)C3)nc21` (centres unmarked) [Compound 248, 1-(2-(2,2,2-Trifluoroethoxy)ethyl)-6-(3-(((2-(trifluoromethyl)pyridin-3-yl)oxy)methyl)piperidin-1-yl)-1H-pyrazolo[3,4-b]pyrazine] displayed an EC50 of less than 10 µM. As to `O=C(Cc1c[nH]c2ccccc12)N1CCC(Oc2ccc(C(F)(F)F)cn2)CC1` [Compound 7], the concentration giving a half-maximal response (EC50) is 10 to 50 µM. The value for `FC(F)Cn1ncc2ncc(N3CCC(COc4ccnc(C(F)(F)F)c4)CC3)nc21` [Compound 315, 1-(2,2-Difluoroethyl)-6-(4-(((2-(trifluoromethyl)pyridin-4-yl)oxy)methyl)piperidin-1-yl)-1H-pyrazolo[3,4-b]pyrazine] was less than 10 µM.
